Earlier results as cited in PubChem BioAssay AID1259409 (Chemical Carcinogenesis Research Information System (CCRIS), 2018).

System: rodent chemically induced tumor inhibition, incidence and multiplicity
Assay: CCRIS tumor inhibitor studies
Settings: Route [Inhibitor]: ORAL

Cn1c(=O)c2c(ncn2C)n(C)c1=O
tumour outcome (control, treated, inhibition, significance) (Carcinogen: 2-AMINO-1-METHYL-6-PHENYLIMIDAZO[4,5-B]PYRIDINE [105650-23-5], Dose [Inhibitor]: 0.1% IN DRINKING WATER FOR 54 WK (STUDY DURATION: 54 WK), Species: RAT, Strain/Sex: F344/DUCRJ/FEMALE, Target Tissue: Type of Lesion: MAMMARY GLAND: ADENOMA OR ADENOCARCINOMA, Dose [Carcinogen]: 0.02% IN DIET FOR 54 WK (STUDY DURATION: 54 WK), Promoter: NONE): 8/20 (40%), 2/20 (10%), 75%, p<0.05 | tumour outcome (control, treated, inhibition, significance) (Carcinogen: 4-(METHYLNITROSAMINO)-1-(3-PYRIDYL)-1-BUTANONE, 64091-91-4, Dose [Inhibitor]: 0, 1120 MG IN DRINKING WATER FOR 13 WK BEGINNING 2 WK PRIOR TO CARCINOGEN TREATMENT (STUDY DURATION: 18 WK), Species: MOUSE, Strain/Sex: STRAIN-A/FEMALE, Target Tissue: Type of Lesion: LUNG: ADENOMA, Dose [Carcinogen]: 11.65 MG/KG 3/WK FOR 10 WK, Promoter: NONE USED): 100%, 100%, 0%, not significant | tumour outcome (control, treated, inhibition, significance) (Carcinogen: 4-(METHYLNITROSAMINO)-1-(3-PYRIDYL-1-BUTANONE), 64091-91-4, Dose [Inhibitor]: 0, 170 PPM IN DRINKING WATER FOR 22WK BEGINNING 1 WK PRIOR TO CARCINOGEN TREATMENT (STUDY DURATION:101 WK), Species: RAT, Strain/Sex: F344/MALE, Target Tissue: Type of Lesion: LIVER: TUMOR, Dose [Carcinogen]: 1.5 MG/KG 3/WK FOR 20 WK, Promoter: NONE USED): 11/32 (34%), 5/20 (25%), 26%, not significant | tumour outcome (control, treated, inhibition, significance) (Carcinogen: 4-(METHYLNITROSAMINO)-1-(3-PYRIDYL-1-BUTANONE), 64091-91-4, Dose [Inhibitor]: 0, 170 PPM IN DRINKING WATER FOR 22 WK BEGINNING 1 WK PRIOR TO CARCINOGEN TREATMENT (STUDY DURATION:101 WK), Species: RAT, Strain/Sex: F344/MALE, Target Tissue: Type of Lesion: LUNG:TUMOR, Dose [Carcinogen]: 1.5 MG/KG 3/WK FOR 20 WK, Promoter: NONE USED): 15/32 (47%), 4/20 (20%), 57%, not significant | tumour outcome (control, treated, inhibition, significance) (Carcinogen: 4-(METHYLNITROSAMINO)-1-(3-PYRIDYL-1-BUTANONE), 64091-91-4, Dose [Inhibitor]: 0, 170 PPM IN DRINKING WATER FOR 22 WK BEGINNING 1 WK PRIOR TO CARCINOGEN TREATMENT (STUDY DURATION:101 WK), Species: RAT, Strain/Sex: F344/MALE, Target Tissue: Type of Lesion: NASAL CAVITY: TUMOR, Dose [Carcinogen]: 1.5 MG/KG 3/WK FOR 20 WK, Promoter: NONE USED): 6/32 (19%), 3/20 (15%), 21%, not significant | tumour outcome (control, treated, inhibition, significance) (Carcinogen: 4-(METHYLNITROSAMINO)-1-(3-PYRIDYL-1-BUTANONE), 64091-91-4, Dose [Inhibitor]: 0, 680 PPM IN DRINKING WATER FOR 22 WK BEGINNING 1 WK PRIOR TO CARCINOGEN TREATMENT (STUDY DURATION:101 WK), Species: RAT, Strain/Sex: F344/MALE, Target Tissue: Type of Lesion: LUNG:TUMOR, Dose [Carcinogen]: 1.5 MG/KG 3/WK FOR 20 WK, Promoter: NONE USED): 15/32 (47%), 2/20 (10%), 79%, p<0.01 | tumour outcome (control, treated, inhibition, significance) (Carcinogen: 4-(METHYLNITROSAMINO)-1-(3-PYRIDYL-1-BUTANONE), 64091-91-4, Dose [Inhibitor]: 0, 680 PPM IN DRINKING WATER FOR 22 WK BEGINNING 1 WK PRIOR TO CARCINOGEN TREATMENT (STUDY DURATION: 101 WK), Species: RAT, Strain/Sex: F344/MALE, Target Tissue: Type of Lesion: NASAL CAVITY: TUMOR, Dose [Carcinogen]: 1.5 MG/KG 3/WK FOR 20 WK, Promoter: NONE USED): 6/32 (19%), 5/20 (25%), -32%, not significant | tumour outcome (control, treated, inhibition, significance) (Carcinogen: 4-METHYLNITROSAMINO-1-(3-PYRIDYL)-1-BUTANONE, 64091-91-4, Dose [Inhibitor]: 0, 1120 PPM IN DRINKING WATER 2 WK PRIOR TO CARCINOGEN AND CONTINUING FOR 13 WK (STUDY DURATION: 29 WK), Species: MOUSE, Strain/Sex: A/J/FEMALE, Target Tissue: Type of Lesion: LUNG: ADENOMA, Dose [Carcinogen]: 11.65 MG/KG IN CORN OIL 3/WK FOR 10 WK, Promoter: NONE USED): 100%, 100%, 0%, not significant | tumour outcome (control, treated, inhibition, significance) (Carcinogen: 7,12-DIMETHYLBENZ[A]ANTHRACENE, 57-97-6, Dose [Inhibitor]: 0, 500 MG/L IN DRINKING WATER BEGINNING AT 27 D OF AGE AND CONTINUING TO 59 D OF AGE (STUDY DURATION: 52 WK), Species: RAT, Strain/Sex: SPRAGUE-DAWLEY/FEMALE, Target Tissue: Type of Lesion: MAMMARY GLAND: BENIGN TUMOR, Dose [Carcinogen]: 0.5 MG/100 G BW ONCE AT 55 D OF AGE, Promoter: NONE USED): 71/73 (97%), 65/70 (93%), 4%, not significant | tumour outcome (control, treated, inhibition, significance) (Carcinogen: 7,12-DIMETHYLBENZ[A]ANTHRACENE, 57-97-6, Dose [Inhibitor]: 0, 500 MG/L IN DRINKING WATER BEGINNING AT 27 D OF AGE AND CONTINUING TO 59 D OF AGE (STUDY DURATION: 52 WK), Species: RAT, Strain/Sex: SPRAGUE-DAWLEY/FEMALE, Target Tissue: Type of Lesion: MAMMARY GLAND: CARCINOMA, Dose [Carcinogen]: 0.5 MG/100 G BW ONCE AT 55 D OF AGE, Promoter: NONE USED): 42/73 (58%), 20/70 (29%), 50%, p<0.001 | tumour outcome (control, treated, inhibition, significance) (Carcinogen: 7,12-DIMETHYLBENZ[A]ANTHRACENE, 57-97-6, Dose [Inhibitor]: 0, 500 MG/L IN DRINKING WATER BEGINNING AT 59 D OF AGE AND CONTINUING FOR DURATION OF STUDY (STUDY DURATION: 48 WK), Species: RAT, Strain/Sex: SPRAGUE-DAWLEY/FEMALE, Target Tissue: Type of Lesion: MAMMARY GLAND: BENIGN TUMOR, Dose [Carcinogen]: 0.5 MG/100 G BW ONCE AT 55 D OF AGE, Promoter: NONE USED): 70/72 (97%), 55/62 (89%), 8%, p,0.05 | tumour outcome (control, treated, inhibition, significance) (Carcinogen: 7,12-DIMETHYLBENZ[A]ANTHRACENE, 57-97-6, Dose [Inhibitor]: 0, 500 MG/L IN DRINKING WATER BEGINNING AT 59 D OF AGE AND CONTINUING FOR DURATION OF STUDY (STUDY DURATION: 48 WK), Species: RAT, Strain/Sex: SPRAGUE-DAWLEY/FEMALE, Target Tissue: Type of Lesion: MAMMARY GLAND: CARCINOMA, Dose [Carcinogen]: 0.5 MG/100 G BW ONCE AT 55 D OF AGE, Promoter: NONE USED): 39/72 (54%), 31/62 (50%), 7%, not significant | tumour outcome (control, treated, inhibition, significance) (Carcinogen: 7,12-DIMETHYLBENZ[A]ANTHRACENE, 57-97-6, Dose [Inhibitor]: 0, 500 MG/L IN DRINKING WATER OF 58 DAY OLD VIRGIN RATS (STUDY DURATION: 56 WK), Species: RAT, Strain/Sex: SPRAGUE-DAWLEY/FEMALE, Target Tissue: Type of Lesion: MAMMARY GLAND: CARCINOMA, Dose [Carcinogen]: 2 MG/100 G BW ONCE AT 55 D OF AGE, Promoter: NONE USED): 95%, 100%, -5%, not significant
